Measured values published in publication PMC6792352, “Limited Chemical Structural Diversity Found to Modulate Thyroid Hormone Receptor in the Tox21 Chemical Library” (Environmental Health Perspectives, 2019).
Where a name gives a salt, the structure may show the parent alone. Read-outs that look alike come from different tables or passages of the source. Blank lines part the entries; values can stand above or below the molecule they belong to.

What was measured:
[1] = test system: thyroid hormone receptor (endogenous TRα and TRβ); assay: GH3-TRE-Ag primary qHTS, luciferase reporter, agonist mode (TOX21_TR_LUC_GH3_Agonist, aeid 803); format: cell-based, rat; details: for GH3-TRE-Ag AC50 hitc: hit call from tcpl; for AC50: read-out: GH3-TRE-Ag AC50
GH3-TRE-Luc cell line = details: for TR_LUC_GH3_Antagonist_viability hitc: rat, 24 h
[2] = target: T1, human TRβ ligand-binding domain (Homo sapiens, UniProt P10828); assay: TRb-coa LanthaScreen TR-FRET coactivator (SRC-2 peptide) recruitment, agonist (TOX21_TRB_COA_Agonist_Followup_ratio, aeid 2244); format: biochemical; set-up: host or cells: GeneBLAzer UAS-bla HEK 293T
T1 sequence (P10828 217-461 limits assumed): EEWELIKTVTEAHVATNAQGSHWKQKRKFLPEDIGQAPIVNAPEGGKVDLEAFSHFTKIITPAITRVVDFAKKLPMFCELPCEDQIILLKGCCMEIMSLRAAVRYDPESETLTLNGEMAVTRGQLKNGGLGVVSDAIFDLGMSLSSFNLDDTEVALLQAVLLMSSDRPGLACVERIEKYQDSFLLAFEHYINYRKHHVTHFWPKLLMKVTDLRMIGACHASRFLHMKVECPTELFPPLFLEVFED

[3] = test system: Tox21 cell viability assays (different cell types); assay: Global cytotoxicity: eighteen Tox21 cell viability assays; format: cell-based
[4] = as above; format: cell-based
[5] = target: T2, TRα ligand-binding domain (Homo sapiens, UniProt P10827); assay: TRa-coa LanthaScreen TR-FRET coactivator (SRC-2 peptide) recruitment, agonist (TOX21_TRA_COA_Agonist_Followup_ratio, aeid 2230); format: biochemical
T2 construct: the receptor LBDs expressed as glutathione S-transferase (GST) fusion proteins; purchased

in vitro [6] = details: rat
[7] = test system: thyroid hormone receptor (TR); assay: Classification of TR actives across characterization assays (TR-Ag / RXR-Ag; TR model binary); details: for Categorization Code: TR agonist characterization; for Classification: TR-Ag = TR agonist, RXR-Ag = RXR agonist
Procedure, shortened: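 GH3-TRE qHTS agonist, antagonist and viability modes over 8,305 compounds; 84 candidates rescreened in GH3-TRE-Ag, TRβ- and RXRα-UAS-bla HEK 293T one-hybrid assays, HEK293T viability, and TRα/TRβ coactivator recruitment. Actives classified binary after removing pharmaceuticals.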

[8] = test system: thyroid hormone receptor (endogenous TRα and TRβ); assay: GH3-TRE-Ag-Followup confirmation (TOX21_TR_LUC_GH3_Agonist_Followup, aeid 2226); format: cell-based, rat; details: for AC50: confirmation, agonist mode, read-out: GH3-TRE-Ag-Followup AC50; for GH3-TRE-Ag-Followup hitc: hit call from tcpl
[9] = target: T1, human TRβ ligand-binding domain; assay: TRb-bla agonist mammalian one-hybrid beta-lactamase assay (TOX21_TRB_BLA_Agonist_Followup_ratio, aeid 2236); format: cell-based; set-up: host or cells: GeneBLAzer UAS-bla HEK 293T
[10] = test system: thyroid hormone receptor (endogenous TRα and TRβ); assay: GH3-TRE-Antag primary qHTS, luciferase reporter, antagonist mode with 1 nM T3 (TOX21_TR_LUC_GH3_Antagonist, aeid 804); format: cell-based, rat
in vitro [11] = details: rat, gh3-tre-luc cells, AC50 (uM) modified / 1000
[12] = antagonist candidates, inactive samples arbitrarily set to AC50=1,000 μM
[13] = antagonist mode, 1 nM T3, read-out: GH3-TRE-Antag AC50

T2 sequence (P10827 163-410 isoform P10827-2 limits assumed, other chains not shown): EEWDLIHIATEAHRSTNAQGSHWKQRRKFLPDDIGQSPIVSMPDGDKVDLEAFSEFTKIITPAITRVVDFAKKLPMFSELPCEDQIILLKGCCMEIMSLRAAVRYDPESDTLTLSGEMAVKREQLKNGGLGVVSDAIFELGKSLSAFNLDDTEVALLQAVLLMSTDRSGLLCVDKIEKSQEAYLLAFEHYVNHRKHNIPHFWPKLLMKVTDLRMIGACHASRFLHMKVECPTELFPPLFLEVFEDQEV

Structure (SMILES): CC[C@@]1(O)C(=O)OCc2c1cc1n(c2=O)Cc2cc3c(CN(C)C)c(O)ccc3nc2-1 [Topotecan hydrochloride, reference compound]
cytotoxicity in GH3 viability assay (GH3-TRE-Luc cell line): not considered active
activity in GH3-TRE antagonist mode assay [10]: complete inhibition of luciferase activity

Structure (SMILES): O=C(O)Cc1cc(I)c(Oc2ccc(O)c(I)c2)c(I)c1 [Tiratricol, reference compound]
TR_LUC_GH3_Agonist_EMAX (% Control) ([1]; Table S5): 104.7 % Control
GH3-TRE-Ag AC50 hitc [1]: 1
TR_LUC_GH3_Antagonist_viability hitc (GH3-TRE-Luc cell line): 0
GLOBAL CYTOTOXICITY cytotox.number_Active [3]: 4
GLOBAL CYTOTOXICITY cytotox.median ([3]; median over Tox21 viability assays): 27.0
AC50 [4]: 27 µM
AC50 at 24 h (in vitro [6]): > 92 µM
Categorization Code [7]: TR-Ag
Classification [7]: TR-Ag
EMax (% of Control) gh3-tre-agonist-followup-1_agonist [8]: 105.1 % of Control
AC50 [8]: 0.0002 µM
GH3-TRE-Ag-Followup hitc [8]: 1

Structure (SMILES): CN(C)S(=O)(=O)N(SC(F)(Cl)Cl)c1ccccc1 [Dichlofluanid]
cytotoxicity in GH3 viability assay (GH3-TRE-Luc cell line): loss of viability at virtually identical concentrations
activity in GH3-TRE antagonist mode assay [10]: active
CC50 at 24 h (in vitro [11]): 1.43 µM

Structure (SMILES): CC[C@]12CCCN3CCc4c(n(c5ccccc45)C(=O)C1)[C@@H]32 [(-)-Eburnamonine]
AC50 (GH3-TRE-Luc cell line): 7.18 µM
resp_max GH3-TRE-Via (GH3-TRE-Luc cell line): 66.2
resp_max GH3-TRE-Antag ([10]; Table S8): 88.8
AC50 ([10]; Table S8, read-out: Average AC50 (uM) GH3-TRE-Antag): 6.85 µM
CC50 at 24 h (in vitro [11]): 7.18 µM

Second part, led by results:

AC50 at 24 h (in vitro [6]): 10.4 µM
Categorization Code [7]: RXR-Ag
Classification [7]: RXR-Ag
Structure (SMILES): C=C(c1ccc(C(=O)O)cc1)c1cc2c(cc1C)C(C)(C)CCC2(C)C [Bexarotene, reference compound]
EMax (% of Control) gh3-tre-agonist [1]: 26.0 % of Control
GH3-TRE-Ag AC50 hitc [1]: 0
AC50 ([1]; primary qHTS, agonist mode, 24 h, top concentration 92 μM): 0.0077 µM
TR_LUC_GH3_Antagonist_viability hitc (GH3-TRE-Luc cell line): 1
AC50 ([2]; cell-free coactivator recruitment, read-out: TRb-coa-Ag AC50): > 92 µM
TRb-coa hitc ([2]; hit call from tcpl, agonist): 0
Emax ([2]; read-out: EMax (% of Control) trb-coa-agonist-followup-1): -0.427%
GLOBAL CYTOTOXICITY cytotox.median [3]: 23.9
GLOBAL CYTOTOXICITY cytotox.number_Active [3]: 15
AC50 [4]: 23.9 µM
AC50 ([5]; cell-free coactivator recruitment, read-out: TRa-coa-Ag AC50): > 92 µM
TRa-coa hitc ([5]; hit call from tcpl, agonist): 0
Emax ([5]; read-out: EMax (% of Control) tra-coa-agonist-followup-1): -0.4%
EMax (% of Control) gh3-tre-agonist-followup-1_agonist [8]: 37.1 % of Control
AC50 [8]: 0.017 µM
GH3-TRE-Ag-Followup hitc [8]: 1
AC50 ([9]; HEK 293T one-hybrid, agonist mode, read-out: TRb-bla-Ag AC50): > 92 µM
TRb-bla hitc ([9]; hit call from tcpl, agonist): 0
Emax ([9]; read-out: EMax (% of Control) trb-bla-agonist-followup-1): 11.8%

AC50 (GH3-TRE-Luc cell line): 8.8 µM
Structure (SMILES): N=C1C=CC(=C(c2ccc(N)cc2)c2ccc(N)cc2)C=C1 [C.I. Basic Red 9 monohydrochloride]
AC50 [1, 12]: > 92 µM
AC50 [3]: 24.2 µM
Active in global cytotoxicity assays (%) [3]: 66.7%
AC50 [10, 13]: 5.15 µM
CC50 at 24 h (in vitro [11]): 8.8 µM

AC50 at 24 h (in vitro [6]): 2.15 µM
Structure (SMILES): CCOC(=O)C1=C(COCCN)NC(C)=C(C(=O)OC)C1c1ccccc1Cl (centres unmarked) [Amlodipine besylate, reference compound]
AC50 [1, 12]: > 92 µM
AC50 [10, 13]: 4.56 µM
